In patent publication US11925629B2, “Heterocyclic inhibitors of ERK1 and ERK2 and their use in the treatment of cancer” (Asana Biosciences, LLC, priority 2015, dated 2024):
pIC50: −log10 of the molar value. Where two headings read alike, the source gives them in different places.

Legend:
Type in all cases: cell-based, human
[1] = test system: HCT116 (colorectal carcinoma, K Ras G13D) cells; assay: Cell proliferation (Alamar Blue) assay, HCT116; details: Homo sapiens, HCT-116, HCT116 cells
Summary of the method: (§1)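 Fluorescence read-out (ex 540 nm, em 590 nm) after 1-3 h with 1× Alamar Blue, following 72 h compound exposure at 37° C./5% CO2. Compounds tested at typically 0.0005 to 10 uM, 3-fold steps; IC50 by sigmoidal dose-response (variable slope).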

[2] = test system: phosphorylation of RSK1(S380) (the downstream target of ERK1/2); assay: Phospho-RSK1(S380) ELISA assay in HT-29 cells; details: Homo sapiens, HT-29, HT29 cells, read-out: Mechanistic Cell Assay RSK1 Phos HT29 IC50
Summary of the method: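 HT-29 colorectal carcinoma cells (B-RafV600E), plated overnight at 37° C./5% CO2, were treated with compound dilutions for 2 h. Lysates were analysed by phospho-RSK1(Ser380) sandwich ELISA with absorbance at 450 nm. IC50 came from a sigmoidal variable-slope dose-response fit.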

[3] = test system: HT-29 (colorectal carcinoma, B-RafV600E) cells; assay: Cell proliferation (Alamar Blue) assay, HT-29; details: Homo sapiens, HT-29, HT29 cells
Summary of the method: as §1

pIC50 [1] | pIC50 ([2]; phospho-RSK1(S380)) | pIC50 [3] | pIC50 [2] | SMILES
< 5.60 | < 5.60 | < 5.60 |  | C#Cc1cccc(Nc2nccc(-n3cc(NC(=O)N[C@H](CO)c4cccc(Cl)c4)cn3)n2)c1 [Example 38, (S)-1-(1-(3-chlorophenyl)-2-hydroxy-ethyl)-3-(1-(2-((3-ethynyl-phenyl)amino)pyrimidin-4-yl)-1H-pyrazol-4-yl)urea]
< 5.60 | 5.60 to 6.30 | 5.60 to 6.30 |  | Cc1cnc(NC2CCCN(C)C2)nc1-n1ccc(C(=O)NC(CO)c2cccc(Cl)c2)c1 (stereo not drawn) [Example 199, N-(1-(3-chlorophenyl)-2-hydroxyethyl)-1-(5-methyl-2-((1-methylpiperidin-3-yl)amino)pyrimidin-4-yl)-1H-pyrrole-3-carboxamide]
< 5.60 | 5.60 to 6.30 | 5.60 to 6.30 |  | CC[C@@H](CO)Nc1ncc(C)c(-n2ccc(C(=O)NC(CO)c3ccccc3)c2)n1 (stereo partly drawn) [Example 75, N-(2-hydroxy-1-phenylethyl)-1-(2-(((S)-1-hydroxy-butan-2-yl)amino)-5-methyl-pyrimidin-4-yl)-1H-pyrrole-3-carboxamide]
< 5.60 | 6.30 to 6.60 | 5.60 to 6.30 |  | Cc1cnc(Nc2ccccc2)cc1-n1cnc(C(=O)NC(CO)c2cccc(Cl)c2)c1 (stereo not drawn) [Example 180, N-(1-(3-chlorophenyl)-2-hydroxyethyl)-1-(5-methyl-2-(phenylamino)pyridin-4-yl)-1H-imidazole-4-carboxamide]
≥ 7.00 |  | ≥ 7.00 | ≥ 7.00 | Cc1cnc(NC2CCOCC2)nc1-n1cnc(C(=O)N[C@H](CNCC2CC2)c2cccc(Cl)c2)c1 [Example 339, 1-[5-Methyl-2-(tetrahydro-pyran-4-ylamino)-pyrimidin-4-yl]-1H-imidazole-4-carboxylic acid [(S)-1-(3-chloro-phenyl)-2-(cyclopropylmethyl-amino)-ethyl]-amide]
5.60 to 6.30 | 6.60 to 7.00 | 6.30 to 6.60 |  | Cc1cnc(NC2CCOC2)nc1-n1ccc(C(=O)NC(CO)c2cccc(Cl)c2)c1 (stereo not drawn) [Example 123, N-(1-(3-chlorophenyl)-2-hydroxy-ethyl)-1-(5-methyl-2-((tetrahydro-furan-3-yl)amino)pyrimidin-4-yl)-1H-pyrrole-3-carboxamide]
≥ 7.00 | ≥ 7.00 | ≥ 7.00 |  | Cc1cnc(NC2CCOCC2)nc1-n1cnc(C(=O)NCc2cccc(Cl)c2CO)c1 [Cmpd 93, N-(3-chloro-2-(hydroxy-methyl)benzyl)-1-(5-methyl-2-((tetrahydro-2H-pyran-4-yl)amino)-pyrimidin-4-yl)-1H-imidazole-4-carboxamide]
5.60 to 6.30 | 5.60 to 6.30 | 6.30 to 6.60 |  | Cc1cnc(Nc2ccc(F)cc2Cl)nc1-n1ccc(C(=O)NC(CN)c2cccc(Cl)c2)c1 (stereo not drawn) [Example 169, N-(2-amino-1-(3-chlorophenyl)ethyl)-1-(2-((2-chloro-4-fluorophenyl)amino)-5-methylpyrimidin-4-yl)-1H-pyrrole-3-carboxamide]
< 5.60 | 5.60 to 6.30 | 5.60 to 6.30 |  | Cc1cnc(N[C@H]2CCOC2)nc1-n1ccc(C(=O)N(C)C(CO)c2cccc(Cl)c2)c1 (stereo partly drawn) [Example 212, N-(1-(3-chlorophenyl)-2-hydroxyethyl)-N-methyl-1-(5-methyl-2-(((S)-tetrahydrofuran-3-yl)amino)pyrimidin-4-yl)-1H-pyrrole-3-carboxamide]
< 5.60 | 6.60 to 7.00 | 5.60 to 6.30 |  | O=C(NC(CO)c1cccc(Cl)c1)c1cn(-c2cc(Nc3ccccc3)ncc2Cl)cn1 (stereo not drawn) [Cmpd 106, 1-(5-chloro-2-(phenyl-amino)pyridin-4-yl)-N-(1-(3-chlorophenyl)-2-hydroxy-ethyl)-1H-imidazole-4-carboxamide]
< 5.60 | ≥ 7.00 | 5.60 to 6.30 |  | O=C(N[C@H](CO)c1cccc(Cl)c1)c1cn(-c2ccnc(Nc3ccccc3)c2)cn1 [Example 72, (S)-N-(1-(3-chlorophenyl)-2-hydroxy-ethyl)-1-(2-(phenylamino)pyridin-4-yl)-1H-imidazole-4-carboxamide]
6.60 to 7.00 | 6.60 to 7.00 | 6.60 to 7.00 |  | Cc1cnc(Nc2ccc3c(c2)CCO3)nc1-n1ccc(C(=O)NC(CO)c2ccccc2)c1 (stereo not drawn) [Example 138, 1-(2-((2,3-dihydro-benzofuran-5-yl)amino)-5-methyl-pyrimidin-4-yl)-N-(2-hydroxy-1-phenylethyl)-1H-pyrrole-3-carboxamide]
5.60 to 6.30 |  | < 5.60 | 5.60 to 6.30 | Cc1cnc(N[C@H]2CCOC2)nc1-n1cnc(C(=O)NCc2cccc(CO)c2Cl)c1 [Example 338, (S)-N-(2-chloro-3-(hydroxymethyl)benzyl)-1-(5-methyl-2-((tetrahydrofuran-3-yl)amino)pyrimidin-4-yl)-1H-imidazole-4-carboxamide]
< 5.60 | 6.30 to 6.60 | 5.60 to 6.30 |  | O=C(NC(CO)c1ccccc1)c1ccn(-c2ccnc(Nc3ccc4c(c3)OCO4)c2)c1 (stereo not drawn) [Example 76, 1-(2-(benzo[d][1,3]dioxol-5-ylamino)pyridin-4-yl)-N-(2-hydroxy-1-phenylethyl)-1H-pyrrole-3-carboxamide]
< 5.60 |  | 5.60 to 6.30 | 5.60 to 6.30 | Cc1cnc(N[C@H]2CCOC2)nc1-n1cnc(C(=O)NCc2cccc(Cl)c2)c1 [Example 318, (S)-N-(3-chlorobenzyl)-1-(5-methyl-2-((tetrahydrofuran-3-yl)amino)pyrimidin-4-yl)-1H-imidazole-4-carboxamide]
6.30 to 6.60 | 6.60 to 7.00 | 6.30 to 6.60 |  | Cc1cnc(Nc2ccc(F)cc2)nc1-n1ccc(C(=O)N[C@H](CO)c2ccc(F)c(Cl)c2)c1 [Example 125, (S)-N-(1-(3-chloro-4-fluorophenyl)-2-hydroxy-ethyl)-1-(2-((4-fluoro-phenyl)-amino)-5-methyl-pyrimidin-4-yl)-1H-pyrrole-3-carboxamide]
< 5.60 | < 5.60 | < 5.60 |  | Cc1cnc(NC2CCCOC2)nc1-n1ccc(C(=O)NC(CO)c2ccccc2)c1 (stereo not drawn) [Example 141, N-(2-hydroxy-1-phenylethyl)-1-(5-methyl-2-((tetrahydro-2H-pyran-3-yl)amino)-pyrimidin-4-yl)-1H-pyrrole-3-carboxamide]
6.60 to 7.00 | ≥ 7.00 | 6.30 to 6.60 |  | Cc1cnc(Nc2ccc3c(c2)OCCO3)nc1-n1ccc(C(=O)NC(CO)c2cccc(Cl)c2)c1 (stereo not drawn) [Example 139, N-(1-(3-chloro-phenyl)-2-hydroxy-ethyl)-1-(2-((2,3-dihydro-benzo[b][1,4]dioxin-6-yl)amino)-5-methyl-pyrimidin-4-yl)-1H-pyrrole-3-carboxamide]
< 5.60 | 5.60 to 6.30 | < 5.60 |  | Cc1cnc(NC2CCOC2)cc1-n1ccc(C(=O)NC(CO)c2cccc(Cl)c2)c1 (stereo not drawn) [Example 165, N-(1-(3-chloro-phenyl)-2-hydroxy-ethyl)-1-(5-methyl-2-((tetra-hydrofuran-3-yl)amino)pyridin-4-yl)-1H-pyrrole-3-carboxamide]
5.60 to 6.30 | 5.60 to 6.30 | 6.30 to 6.60 |  | Cc1cnc(NC2CCOCC2)nc1-n1cnc(C(=O)NCc2sccc2CO)c1 [Example 284, N-((3-(hydroxymethyl)thiophen-2-yl)methyl)-1-(5-methyl-2-((tetrahydro-2H-pyran-4-yl)amino)pyrimidin-4-yl)-1H-imidazole-4-carboxamide]
5.60 to 6.30 | 6.30 to 6.60 | < 5.60 |  | Cc1cnc(Nc2ccc(N3CCC(N4CCNCC4)CC3)cc2)nc1-n1ccc(C(=O)NC(CO)c2ccccc2)c1 (stereo not drawn) [Example 178, N-(2-hydroxy-1-phenylethyl)-1-(5-methyl-2-((4-(4-(piperazin-1-yl)piperidin-1-yl)phenyl)amino)pyrimidin-4-yl)-1H-pyrrole-3-carboxamide]
5.60 to 6.30 |  | 6.30 to 6.60 | 5.60 to 6.30 | Cc1cnc(NC2CCOCC2)nc1-n1cnc(C(=O)NCc2cccc(Cl)c2F)c1 [Example 309, N-(3-chloro-2-fluorobenzyl)-1-(5-methyl-2-((tetrahydro-2H-pyran-4-yl)amino)pyrimidin-4-yl)-1H-imidazole-4-carboxamide]
< 5.60 | 6.30 to 6.60 | < 5.60 |  | Cc1cnc(NCC2CCCO2)nc1-n1ccc(C(=O)N[C@H](CO)c2cccc(Cl)c2)c1 (stereo partly drawn) [Example 190, N-((S)-1-(3-chlorophenyl)-2-hydroxyethyl)-1-(5-methyl-2-(((tetrahydrofuran-2-yl)methyl)amino)pyrimidin-4-yl)-1H-pyrrole-3-carboxamide]
< 5.60 | < 5.60 | < 5.60 |  | Cc1cnc(NC(CO)CO)nc1-n1ccc(C(=O)NC(CO)c2ccccc2)c1 (stereo not drawn) [Example 147, 1-(2-((1,3-dihydroxy-propan-2-yl)amino)-5-methyl-pyrimidin-4-yl)-N-(2-hydroxy-1-phenylethyl)-1H-pyrrole-3-carboxamide]
5.60 to 6.30 | 6.60 to 7.00 | 5.60 to 6.30 |  | CC[C@@H](CO)Nc1ncc(C)c(-n2ccc(C(=O)NC(CO)c3cccc(Cl)c3)c2)n1 (stereo partly drawn) [Example 146, N-(1-(3-chloro-phenyl)-2-hydroxy-ethyl)-1-(2-(((S)-1-hydroxy-butan-2-yl)amino)-5-methyl-pyrimidin-4-yl)-1H-pyrrole-3-carboxamide]
5.60 to 6.30 |  | 5.60 to 6.30 | < 5.60 | CNCCNC[C@@H](NC(=O)c1cn(-c2nc(NC3CCOCC3)ncc2C)cn1)c1cccc(Cl)c1 [Example 345]
